Test results from US8754079B2, “Cycloalkyl containing thienopyrimidines for pharmaceutical compositions” (Boehringer Ingelheim International GmbH, priority 2010, dated 2014).

Biological target: T1, MNK2 (Homo sapiens, UniProt Q9HBH9)
T1 construct: the open reading frames of human Mnk1 and Mnk2a were amplified from cDNA; made in house; host or cells: E. coli BL21
Experiment: Mnk2a in vitro kinase assay (indirect fluorescence polarization)
Format: biochemical
Conditions: pre-activated GST-Mnk2a 2.5 nM, 20 μM ATP, 30 μM substrate peptide
Outline: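 Human GST-Mnk2a was expressed in E. coli and activated in vitro with 150 nM pre-activated ERK2 and 50 μM ATP in HEPES pH 7.4/MgCl2 buffer (45 min, 30 °C). Activity on an eIF4E Ser209-derived 12mer peptide was read by competitive fluorescence polarization with a phospho-specific antibody.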

T1 sequence (Q9HBH9 whole entry): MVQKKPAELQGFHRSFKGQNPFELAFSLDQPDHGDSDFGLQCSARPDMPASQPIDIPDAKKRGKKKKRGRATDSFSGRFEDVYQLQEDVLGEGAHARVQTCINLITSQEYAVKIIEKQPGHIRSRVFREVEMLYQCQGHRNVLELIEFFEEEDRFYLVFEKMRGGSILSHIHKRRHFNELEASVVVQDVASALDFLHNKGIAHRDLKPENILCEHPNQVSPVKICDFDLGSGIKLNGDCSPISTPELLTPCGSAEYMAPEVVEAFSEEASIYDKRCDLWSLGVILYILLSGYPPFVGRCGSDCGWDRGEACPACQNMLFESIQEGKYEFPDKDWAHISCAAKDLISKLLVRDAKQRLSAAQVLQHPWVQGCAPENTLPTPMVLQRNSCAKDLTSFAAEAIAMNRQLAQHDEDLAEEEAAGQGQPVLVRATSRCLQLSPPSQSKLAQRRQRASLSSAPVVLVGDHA

| Structure (SMILES) | IC50 [nM] |
| --- | --- |
| CO[C@@H]1CCCC[C@H]1Oc1cc(F)ccc1Nc1ncnc2sc(C(=O)NCCCN3CCCC3)c(C)c12 [Example 254] | 11 |
| CO[C@@H]1CCCC[C@H]1Oc1cc(F)ccc1Nc1ncnc2sc(C(=O)NCC[S+](C)[O-])c(C)c12 (stereo partly shown) [Example 255] | 14 |
| Cc1c(C(=O)NCCCN2CCCC2)sc2ncnc(Nc3ccc(F)cc3OC3CCCCC3O)c12 (stereo not shown) [Example 263] | 175 |
| Cc1c(C(=O)NCCO)sc2ncnc(Nc3cccnc3O[C@H]3CC[C@H](O)CC3)c12 [Example 266, 4-[2-(trans-4-hydroxy-cyclohexyloxy)-pyridine-3-ylamino]-5-methyl-thieno[2,3-d]pyrimidine-6-carboxylic acid (2-hydroxy-ethyl)-amide] | 15 |
| Cc1c(C(=O)NCC#CCN(C)C)sc2ncnc(Nc3cccnc3O[C@H]3CC[C@H](O)CC3)c12 [Example 267] | 10 |
| Cc1c(C(=O)NCCCN2CCCC2)sc2ncnc(Nc3cccnc3O[C@H]3CC[C@H](O)CC3)c12 [Example 268] | 14 |
| Cc1c(C(=O)NC2CCN(C)CC2)sc2ncnc(Nc3cccnc3O[C@H]3CC[C@H](O)CC3)c12 [Example 269] | 24 |
| Cc1c(C(=O)NCCCN2CCC2)sc2ncnc(Nc3cccnc3O[C@H]3CC[C@H](O)CC3)c12 [Example 270] | 58 |
| Cc1c(C(=O)NCCCN2CCCC2=O)sc2ncnc(Nc3ccc(F)cc3O[C@H]3CC[C@H](O)CC3)c12 [Example 271, 4-[4-Fluoro-2-(trans-4-hydroxy-cyclohexyloxy)-phenylamino]-5-methyl-thieno[2,3-d]pyrimidine-6-carboxylic acid [3-(2-oxo-pyrrolidin-1-yl)-propyl]amide] | 12 |
| CO[C@H]1CC[C@H](Oc2cc(F)ccc2Nc2ncnc3sc(C(=O)NCCCN4CCCCC4)c(C)c23)CC1 [Example 275] | 10 |
| CCN(CC)CCCNC(=O)c1sc2ncnc(Nc3ccc(F)cc3O[C@H]3CC[C@H](OC)CC3)c2c1C [Example 276] | 12 |
| CO[C@H]1CC[C@H](Oc2cc(F)ccc2Nc2ncnc3sc(C(=O)NCC(O)CN(C)C)c(C)c23)CC1 (stereo partly shown) [Example 277] | 13 |
| CO[C@H]1CC[C@H](Oc2cc(F)ccc2Nc2ncnc3sc(C(=O)NCCCN(CCO)CCO)c(C)c23)CC1 [Example 278] | 7 |
| CO[C@H]1CC[C@H](Oc2cc(F)ccc2Nc2ncnc3sc(C(=O)NCCCN4CCCC4=O)c(C)c23)CC1 [Example 279] | 11 |
| CO[C@H]1CC[C@H](Oc2cc(F)ccc2Nc2ncnc3sc(C(=O)NCCCN4C(=O)CCC4=O)c(C)c23)CC1 [Example 280] | 9 |
| COC(=O)c1sc2ncnc(Nc3cccnc3O[C@H]3CC[C@H](N)CC3)c2c1C [Example 281, 4-[2-(4-Amino-cyclohexyloxy)-pyridin-3-ylamino]-5-methyl-thieno[2,3-d]pyrimidine-6-carboxylic acid methyl ester] | 66 |
| Cc1c(C(=O)O)sc2ncnc(Nc3cccnc3O[C@H]3CC[C@H](N)CC3)c12 [Example 282, 4-[2-(4-Amino-cyclohexyloxy)-pyridin-3-ylamino]-5-methyl-thieno[2,3-d]pyrimidine-6-carboxylic acid] | 11 |
| Cc1c(C(N)=O)sc2ncnc(Nc3cccnc3O[C@H]3CC[C@H](N)CC3)c12 [Example 283, 4-[2-(4-Amino-cyclohexyloxy)-pyridin-3-ylamino]-5-methyl-thieno[2,3-d]pyrimidine-6-carboxylic acid amide] | 6 |
| CCNC(=O)c1sc2ncnc(Nc3cccnc3O[C@H]3CC[C@H](N)CC3)c2c1C [Example 284] | 10 |
| CNC(=O)c1sc2ncnc(Nc3cccnc3O[C@H]3CC[C@H](N)CC3)c2c1C [Example 285] | 9 |
| CCCCNC(=O)c1sc2ncnc(Nc3cccnc3O[C@H]3CC[C@H](N)CC3)c2c1C [Example 286] | 4 |
| Cc1c(C(=O)NC(C)C)sc2ncnc(Nc3cccnc3O[C@H]3CC[C@H](N)CC3)c12 [Example 287] | 5 |
| Cc1c(C(=O)NCCO)sc2ncnc(Nc3cccnc3O[C@H]3CC[C@H](N)CC3)c12 [Example 288] | 19 |
| CCCNC(=O)c1sc2ncnc(Nc3cccnc3O[C@H]3CC[C@H](N)CC3)c2c1C [Example 289, 4-[2-(4-Amino-cyclohexyloxy)-pyridin-3-ylamino]-5-methyl-thieno[2,3-d]pyrimidine-6-carboxylic acid propyl amide] | 2 |
| Cc1c(C(=O)O)sc2ncnc(Nc3ccc(F)cc3O[C@H]3C[C@@H]4OCO[C@@H]4C3)c12 [Example 290, 4-[4-Fluoro-2-(tetrahydro-cyclopenta[1,3]dioxol-5-yloxy)phenylamino]-5-methyl-thieno[2,3-d]pyrimidine-6-carboxylic acid] | 8 |
| Cc1c(C(=O)NCCCN2CCCC2)sc2ncnc(Nc3ccc(F)cc3O[C@H]3C[C@@H]4OCO[C@@H]4C3)c12 [Example 291, 4-[4-Fluoro-2-(tetrahydro-cyclopenta[1,3]dioxol-5-yloxy)phenylamino]-5-methyl-thieno[2,3-d]pyrimidine-6-carboxylic acid (3-pyrrolidin-1-yl-propyl)-amide] | 19 |
| Cc1c(C(=O)NC2CCN(C)CC2)sc2ncnc(Nc3ccc(F)cc3O[C@H]3C[C@@H]4OCO[C@@H]4C3)c12 [Example 292] | 46 |
| Cc1c(C(N)=O)sc2ncnc(Nc3ccc(F)cc3O[C@H]3CCC[C@@H]3NC(=O)C3CC3)c12 [Example 293, (1S,2S) 4-{2-[2-(Cyclopropanecarbonyl-amino)-cyclopentyloxy]-4-fluoro-phenylamino}-5-methyl thieno[2,3-d]pyrimidine-6-carboxylic acid amide] | 377 |
| COC(=O)N[C@H]1CCC[C@@H]1Oc1cc(F)ccc1Nc1ncnc2sc(C(N)=O)c(C)c12 [Example 294] | 183 |
| CC(=O)N[C@H]1CCC[C@@H]1Oc1cc(F)ccc1Nc1ncnc2sc(C(N)=O)c(C)c12 [Example 295, (1S,2S) 4-{2-[2-(Acetyl-amino)-cyclopentyloxy]-4-fluoro-phenylamino}-5-methyl thieno[2,3-d]pyrimidine-6-carboxylic acid amide] | 95 |

Tested on: Mnk2 (Mnk2a or Mnk2b) or Mnk1
Experiment: not given
Conditions: addition to cell culture cells transfected with Mnk2 (Mnk2a or Mnk2b) or Mnk1; cited from earlier work

| Structure (SMILES) | reduction of phosphorylated eIF4E |
| --- | --- |
| Nc1ncnc2n[nH]c(Nc3ccc(F)cc3)c12 [CGP57380] | strong reduction |
